Assay [1] addresses T1, wt human LRRK2, catalytic site (Homo sapiens, UniProt Q5S007).
T1 construct: 5 nM wt human LRRK2, catalytic site; purchased ThermoFisher
Briefly: TR-FRET LanthaScreen Eu Kinase Binding Assay, LRRK2 wt. The following applies: one range stated for wt and G2019, read-out: IC50, Activity Toward LRRK2(Wt). In short, it runs like this:
(§1)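 Competitive tracer-displacement TR-FRET, 1 h at room temperature, read as emission ratio. LRRK2 (wt or G2019S catalytic domain) at 5 nM with 2 nM Eu-anti-GST and 10 nM Tracer 236; full-length NUAK1 at 8 nM with 2 nM Eu-anti-His and 5 nM Tracer 236, all final in Kinase Buffer A.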

The target of assay [2] is T2, wt human TYK2, catalytic site (Homo sapiens, UniProt P29597).
T2 construct: wt human TYK2, catalytic site; purchased SignalChem
T2 sequence (P29597 897-1176 limits assumed): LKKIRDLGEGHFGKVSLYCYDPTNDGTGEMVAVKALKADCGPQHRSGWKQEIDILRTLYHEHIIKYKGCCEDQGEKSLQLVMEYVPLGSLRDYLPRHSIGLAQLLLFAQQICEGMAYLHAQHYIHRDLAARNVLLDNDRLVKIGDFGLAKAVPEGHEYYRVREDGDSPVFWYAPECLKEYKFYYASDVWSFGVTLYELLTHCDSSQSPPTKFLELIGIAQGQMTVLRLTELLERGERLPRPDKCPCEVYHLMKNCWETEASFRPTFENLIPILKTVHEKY
Briefly: HTRF KinEASE assay, TYK2. The class given is biochemical. The following applies: 1 μM ATP; read-out: IC50, Activity Toward TYK2. In short, it runs like this:
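HTRF KinEASE-TK readout with 1 μM biotinylated TK substrate in 1× kinase buffer, ≥30 min at room temperature, then antibody/streptavidin-XL665 detection for 60 min. TYK2 at 2 nM with 1 μM ATP; JAK2 at 1 nM with 100 μM ATP. Analysis uses emission ratios.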

The target in assay [3] is T3, G2019S human LRRK2, catalytic site (Homo sapiens, UniProt Q5S007, G2019S).
T3 construct: G2019S human LRRK2, catalytic site; purchased ThermoFisher
As to the kind of experiment: TR-FRET LanthaScreen Eu Kinase Binding Assay, LRRK2 G2019S. The following applies: LRRK2(G2019); one range stated for wt and G2019; read-out: IC50, Activity Toward LRRK2(G2019). In short, it runs like this: as §1

Assay [4] has as its target T4, wt human JAK2, catalytic site (Homo sapiens, UniProt O60674).
T4 construct: wt human JAK2, catalytic site; purchased SignalChem
Briefly: HTRF KinEASE assay, JAK2. The following applies: assay format not given (Z'-LYTE or HTRF KinEASE); read-out: IC50, Activity Toward JAK2. It counts as biochemical. On the procedure: Basic protocol for HTRF KinEASE assay (Cisbio/FRA) inhibitor studies involved two steps: • Enzymatic step: Addition of 4 μL of test compound in corresponding DMSO dilutions, 4 μL of kinase/substrate mixture, 2 μL of ATP into 384 well small volume plates. Incubation for at least 30 minutes at room temperature. • Detection step: Addition of 5 μL antibody and 5 μL streptavidin-XL665, read plate after 60 minutes. Data analysis of emission ratios according KinEASE assay protocol.
(§2) Kinase and assay components were adjusted to final concentrations according to kit protocol. For TYK2: 2 nM wt human TYK2, catalytic site (SignalChem/CAN), 1 μM HTRF KinEASE-TK Substrate-biotin, 1 μM ATP in 1× Kinase Buffer. For JAK1: 4 nM wt human JAK1, catalytic site (ThermoFisher/USA), 1 μM HTRF KinEASE-TK Substrate-biotin, 2.5 μM ATP in 1× Kinase Buffer. For JAK2: 1 nM wt human JAK2, catalytic site (SignalChem/CAN), 1 μM HTRF KinEASE-TK Substrate-biotin, 100 μM ATP in 1× Kinase Buffer.
as §2

For assay [5], the target named is T5, wt human JAK1, catalytic site (Homo sapiens, UniProt P23458).
T5 construct: wt human JAK1, catalytic site; purchased ThermoFisher
As to the kind of experiment: HTRF KinEASE assay, JAK1. The class given is biochemical. The conditions noted are these: 2.5 μM ATP; read-out: IC50, Activity Toward JAK1. In short, it runs like this:
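Two-step HTRF KinEASE assay: compound, kinase/biotinylated TK substrate and ATP were incubated at least 30 min at room temperature. Antibody plus streptavidin-XL665 was then added and plates were read after 60 min. Inhibition was derived from emission ratios according to the kit protocol.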

T4 sequence (O60674 849-1124 limits assumed): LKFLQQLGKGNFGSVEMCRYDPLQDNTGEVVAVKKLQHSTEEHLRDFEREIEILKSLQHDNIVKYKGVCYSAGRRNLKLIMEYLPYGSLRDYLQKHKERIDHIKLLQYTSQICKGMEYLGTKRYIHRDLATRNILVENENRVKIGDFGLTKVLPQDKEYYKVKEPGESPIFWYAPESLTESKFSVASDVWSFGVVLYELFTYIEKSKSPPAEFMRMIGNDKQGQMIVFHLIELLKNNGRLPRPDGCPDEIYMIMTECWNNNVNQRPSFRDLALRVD
T1 sequence (Q5S007 970-2527 limits assumed): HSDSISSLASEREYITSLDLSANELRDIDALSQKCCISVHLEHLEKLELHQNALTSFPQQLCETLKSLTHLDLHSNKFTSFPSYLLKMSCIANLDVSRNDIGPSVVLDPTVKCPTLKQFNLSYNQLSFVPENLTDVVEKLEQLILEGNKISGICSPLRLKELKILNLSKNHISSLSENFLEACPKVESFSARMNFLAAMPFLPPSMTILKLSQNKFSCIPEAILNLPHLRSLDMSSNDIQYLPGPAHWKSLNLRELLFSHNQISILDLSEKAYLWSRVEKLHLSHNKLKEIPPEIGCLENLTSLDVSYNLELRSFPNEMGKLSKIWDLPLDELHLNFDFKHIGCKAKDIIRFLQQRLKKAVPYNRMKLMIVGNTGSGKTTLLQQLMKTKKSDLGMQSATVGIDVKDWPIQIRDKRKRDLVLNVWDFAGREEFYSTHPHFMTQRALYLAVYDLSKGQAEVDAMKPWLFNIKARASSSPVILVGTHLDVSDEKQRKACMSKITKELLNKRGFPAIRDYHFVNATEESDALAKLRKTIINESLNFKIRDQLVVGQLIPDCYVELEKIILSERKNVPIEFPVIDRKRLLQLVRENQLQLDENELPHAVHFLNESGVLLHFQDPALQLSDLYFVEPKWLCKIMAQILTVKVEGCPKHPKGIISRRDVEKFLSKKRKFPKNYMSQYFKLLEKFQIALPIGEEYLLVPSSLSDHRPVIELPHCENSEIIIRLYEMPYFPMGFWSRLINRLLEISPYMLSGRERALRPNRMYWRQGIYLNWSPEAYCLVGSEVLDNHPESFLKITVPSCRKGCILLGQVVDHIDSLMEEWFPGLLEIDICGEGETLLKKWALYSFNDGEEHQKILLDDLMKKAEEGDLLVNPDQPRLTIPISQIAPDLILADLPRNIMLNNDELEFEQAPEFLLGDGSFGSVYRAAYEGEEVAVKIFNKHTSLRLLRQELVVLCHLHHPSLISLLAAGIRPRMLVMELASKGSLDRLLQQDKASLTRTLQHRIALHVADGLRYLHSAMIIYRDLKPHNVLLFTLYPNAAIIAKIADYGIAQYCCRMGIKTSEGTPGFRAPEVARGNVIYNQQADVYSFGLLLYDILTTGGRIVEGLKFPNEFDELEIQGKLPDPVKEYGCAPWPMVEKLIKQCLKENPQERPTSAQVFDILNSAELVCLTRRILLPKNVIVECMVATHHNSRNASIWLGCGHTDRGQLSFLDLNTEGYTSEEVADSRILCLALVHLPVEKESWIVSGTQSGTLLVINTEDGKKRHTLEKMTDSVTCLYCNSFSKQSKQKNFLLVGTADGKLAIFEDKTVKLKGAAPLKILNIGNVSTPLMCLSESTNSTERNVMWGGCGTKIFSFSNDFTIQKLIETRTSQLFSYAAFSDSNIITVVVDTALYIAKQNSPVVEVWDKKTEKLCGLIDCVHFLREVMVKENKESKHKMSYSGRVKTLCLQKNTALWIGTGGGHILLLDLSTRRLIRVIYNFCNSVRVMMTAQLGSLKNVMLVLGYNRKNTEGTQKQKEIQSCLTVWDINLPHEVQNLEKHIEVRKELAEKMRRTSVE
T5 sequence (P23458 875-1153 limits assumed): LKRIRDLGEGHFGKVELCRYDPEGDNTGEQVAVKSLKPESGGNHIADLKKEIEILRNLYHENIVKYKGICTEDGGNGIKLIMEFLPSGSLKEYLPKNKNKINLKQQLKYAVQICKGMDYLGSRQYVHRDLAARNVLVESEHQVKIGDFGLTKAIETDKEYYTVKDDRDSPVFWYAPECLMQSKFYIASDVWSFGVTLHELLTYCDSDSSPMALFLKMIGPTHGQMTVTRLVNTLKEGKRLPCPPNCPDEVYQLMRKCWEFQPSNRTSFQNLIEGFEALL
T3 sequence (Q5S007 970-2527 G2019S limits assumed): as the sequence (Q5S007 970-2527 limits assumed) above, with G1050S counted along it

Take `CC(C)n1cnnc1-c1ccc(Nc2nn(-c3c(Cl)cccc3Cl)nc2C(N)=O)cc1` [compound 116, 2-(2,6-dichlorophenyl)-5-((4-(4-isopropyl-4H-1,2,4-triazol-3-yl)phenyl)amino)-2H-1,2,3-triazole-4-carboxamide]: the IC50 in assay [1] was 100 to 1000 nM; in assay [2], under 10 nM; in assay [3] it was 100 to 1000 nM; in assay [4], 100 to 1000 nM.

As to `NC(=O)c1nn(-c2c(Cl)cccc2Cl)cc1Nc1ccc(C(=O)N2CCOCC2)cc1` [compound 17, 1-(2,6-dichlorophenyl)-4-((4-(morpholine-4-carbonyl)phenyl)amino)-1H-pyrazole-3-carboxamide], the IC50 in assay [1] was 100 to 1000 nM; in assay [2], under 10 nM; in assay [5], 10 to 100 nM; in assay [3] it was 100 to 1000 nM; in assay [4] it was 100 to 1000 nM.

For the molecule `NC(=O)c1nn(-c2c(Cl)cccc2Cl)nc1Nc1ccc(-c2nncn2CC(F)F)cc1` [compound 113, 2-(2,6-dichlorophenyl)-5-((4-(4-(2,2-difluoroethyl)-4H-1,2,4-triazol-3-yl)phenyl)amino)-2H-1,2,3-triazole-4-carboxamide], the half-maximal inhibitory concentration (IC50) in assay [1] is 100 to 1000 nM; in assay [2], 10 to 100 nM; in assay [5], under 10 nM; in assay [3], 100 to 1000 nM; in assay [4] it was 100 to 1000 nM.

For `NC(=O)c1nn(-c2c(Cl)cccc2Cl)cc1Nc1ccc(-c2nnc3n2CCOC3)cc1` [compound 57, 1-(2,6-dichlorophenyl)-4-((4-(6,8-dihydro-5H-[1,2,4]triazolo[3,4-c][1,4]oxazin-3-yl)phenyl)amino)-1H-pyrazole-3-carboxamide], the IC50 was 100 to 1000 nM in assay [1]; under 10 nM in assay [2]; 100 to 1000 nM in assay [5]; 100 to 1000 nM in assay [3]; 100 to 1000 nM in assay [4].

In the case of `CCc1cnncc1-c1ccc(Nc2cn(-c3c(Cl)cccc3Cl)nc2C(N)=O)cc1` [compound 322, 1-(2,6-dichlorophenyl)-4-((4-(5-ethylpyridazin-4-yl)phenyl)amino)-1H-pyrazole-3-carboxamide], the IC50 in assay [1] is 100 to 1000 nM; in assay [2] it was 10 to 100 nM; in assay [5] it was 10 to 100 nM; in assay [3], 100 to 1000 nM; in assay [4] it was 100 to 1000 nM.

Regarding `NC(=O)c1nn(-c2c(Cl)cccc2Cl)nc1Nc1ccc(C(=O)N2CC(C(N)=O)C2)cc1` [compound 108], the half-inhibitory concentration (IC50) in assay [1] is 100 to 1000 nM; in assay [2], under 10 nM; in assay [5] it was under 10 nM; in assay [3] it was 100 to 1000 nM; in assay [4], 100 to 1000 nM.

On to `CN(C)C1CCN(C(=O)c2ccc(Nc3nn(-c4c(Cl)cccc4Cl)nc3C(N)=O)cc2)CC1` [compound 122, 2-(2,6-dichlorophenyl)-5-((4-(4-(dimethylamino)piperidine-1-carbonyl)phenyl)amino)-2H-1,2,3-triazole-4-carboxamide], for which the half-inhibitory concentration (IC50) was 100 to 1000 nM in assay [1]; under 10 nM in assay [2]; 10 to 100 nM in assay [5]; 100 to 1000 nM in assay [3]; 100 to 1000 nM in assay [4].

Turning to `CCn1cnnc1-c1ccc(Nc2cn(-c3c(Cl)cc(F)cc3Cl)nc2C(N)=O)cc1` [compound 414, 1-(2,6-dichloro-4-fluorophenyl)-4-((4-(4-ethyl-4H-1,2,4-triazol-3-yl)phenyl)amino)-1H-pyrazole-3-carboxamide], the half-inhibitory concentration (IC50) in assay [1] was 100 to 1000 nM; in assay [2] it was under 10 nM; in assay [5] it was 10 to 100 nM; in assay [3], 100 to 1000 nM; in assay [4] it was 100 to 1000 nM.

For the molecule `Cc1cnnn1-c1ccc(Nc2nn(-c3c(Cl)cccc3Cl)nc2C(N)=O)cc1` [compound 131, 2-(2,6-dichlorophenyl)-5-((4-(5-methyl-1H-1,2,3-triazol-1-yl)phenyl)amino)-2H-1,2,3-triazole-4-carboxamide], the concentration for half-maximal inhibition (IC50) in assay [1] is 100 to 1000 nM; in assay [2], under 10 nM; in assay [5] it was 10 to 100 nM; in assay [3] it was 100 to 1000 nM; in assay [4], 100 to 1000 nM.

Take `NC(=O)c1nn(-c2c(Cl)cccc2Cl)nc1Nc1ccc(C(=O)N2CC(F)C2)cc1` [compound 129, 2-(2,6-dichlorophenyl)-5-((4-(3-fluoroazetidine-1-carbonyl)phenyl)amino)-2H-1,2,3-triazole-4-carboxamide]: the IC50 in assay [1] is 100 to 1000 nM; in assay [2], under 10 nM; in assay [5] it was under 10 nM; in assay [3] it was 100 to 1000 nM; in assay [4], 100 to 1000 nM.

`NC(=O)c1nn(-c2c(Cl)cccc2Cl)cc1Nc1ccc(C(=O)N2CC(F)C2)cc1` [compound 425, 1-(2,6-dichlorophenyl)-4-((4-(3-fluoroazetidine-1-carbonyl)phenyl)amino)-1H-pyrazole-3-carboxamide]: the concentration for half-maximal inhibition (IC50) was 100 to 1000 nM in assay [1]; under 10 nM in assay [2]; 10 to 100 nM in assay [5]; 100 to 1000 nM in assay [3]; 100 to 1000 nM in assay [4].

Take `NC(=O)c1nn(-c2c(Cl)cccc2Cl)cc1Nc1ccc(-n2ncnc2C2COC2)cc1` [compound 347, 1-(2,6-dichlorophenyl)-4-((4-(5-(oxetan-3-yl)-1H-1,2,4-triazol-1-yl)phenyl)amino)-1H-pyrazole-3-carboxamide]: the IC50 in assay [1] is 100 to 1000 nM; in assay [2], under 10 nM; in assay [5], 10 to 100 nM; in assay [3] it was 100 to 1000 nM; in assay [4], 100 to 1000 nM.

Take `N=S1(=O)CCN(C(=O)c2ccc(Nc3nn(-c4c(Cl)cccc4Cl)nc3C(N)=O)cc2)CC1` [compound 169, 2-(2,6-dichlorophenyl)-5-((4-(1-imino-1-oxidothiomorpholine-4-carbonyl)phenyl)amino)-2H-1,2,3-triazole-4-carboxamide]: the figures for the IC50 in assay [2], in assay [5] and in assay [4] were under 10 nM, under 10 nM and 100 to 1000 nM, respectively.

In the case of `Cn1ncnc1-c1ccc(Nc2cn(-c3c(Cl)cccc3Cl)nc2C(N)=O)cc1` [compound 96, 1-(2,6-dichlorophenyl)-4-((4-(1-methyl-1H-1,2,4-triazol-5-yl)phenyl)amino)-1H-pyrazole-3-carboxamide], the concentration for half-maximal inhibition (IC50) in assay [2] is 10 to 100 nM; in assay [5], 10 to 100 nM; in assay [4], 100 to 1000 nM.

In the case of `CN1CCN(C(=O)c2ccc(Nc3cn(-c4c(Cl)cccc4Cl)nc3C(N)=O)cc2)CC1` [compound 32, 1-(2,6-dichlorophenyl)-4-((4-(4-methylpiperazine-1-carbonyl)phenyl)amino)-1H-pyrazole-3-carboxamide], the IC50 in assay [1] is 100 to 1000 nM; in assay [2] it was under 10 nM; in assay [5], 10 to 100 nM; in assay [3], 100 to 1000 nM; in assay [4], 100 to 1000 nM.
